Legend:
[1] = test system: 5-mC in Bdnf promoter IV region; test: MeDIP-qPCR of Bdnf promoter IV; format: cell-based, mouse; conditions: Htt-72Q-expressing cortical neurons, 0.2 μM vs DMSO
Description: FIG. 4A-4H illustrate that mutant Htt increased the levels of DNA methylation at Bdnf exon IV regulatory region in primary cortical neurons. (FIG. 4A) Schematic of the mouse Bdnf exon IV regulatory region near the TSS. The positions of CpG sites are indicated relative to the TSS. (FIG. 4B) DIV 5 primary cortical neurons were infected with lentivirus expressing Htt-25Q or Htt-72Q exon 1 fragment; 5 days later, genomic DNA was purified and subjected to bisulfite sequencing analysis. […] Increased DNA methylation was found in mutant Htt-expressing neurons compared to WT Htt-expressing neurons. 28-30 clones from 7 independent experiments were analyzed (See FIG. 11A) for the bisulfite sequencing data from each clone). The number above the black bar (Htt-72Q) represents the fold changes in methylated cytosine relative to the white bar (Htt-25Q) at the indicated position. (FIG. 4C) Genomic DNA was purified from primary cortical neurons transduced as in (B) and subjected to MeDIP with anti-5-mC antibody followed by qPCR. […]
Genomic DNA was isolated from primary cortical neurons using QIAamp DNA Mini Kit (QIAGEN) and fragmented by sonication using Bioruptor (Diagenode). […] The percentage input was calculated by first normalizing IP to input DNA using the formula (2^[(Ct(10% input)-3.32)-Ct(IP)]×100) as described previously^89. […]

R6/2 HD mouse brain = test: icv infusion in R6/2 mice, striatal qRT-PCR; format: in vivo; conditions: 0.1 mM in saline icv infusion by osmotic pump from 6 weeks of age, one week, vs. R6/2-saline
Htt-72Q mRNA = test: qRT-PCR for Htt-72Q (human) mRNA in cortical neurons; format: cell-based, mouse; conditions: RNA at DIV 10, compared to vehicle (DMSO)
Procedure: (FIG. 8A) DIV 5 mouse primary cortical neurons were infected with Htt-72Q lentivirus and treated with decitabine or vehicle (DMSO). RNA was prepared at DIV 10 and subjected to qRT-PCR analysis for Htt-72Q (human). β-actin and Hprt were used as reference genes. […] (FIG. 8B) DIV 5cortical neurons were infected with Htt lentivirus and treated with decitabine (0.2 μM) or DMSO. Neurons were fixed at DIV 11-12 and subjected to indirect immunofluorescence with a specific mouse monoclonal Htt antibody EM48, which preferentially detects aggregated mutant protein. Nuclei were labeled with Hoechst 33342. Images were captured using an Operetta high-content imaging system (PerkinElmer) with a 20× objective lens. Bar 100 μm. (FIG. 8C) EM48 immunofluorescence intensity in (FIG. 8B) was quantified using an ImageJ-based macro. […] (FIG. 8D) Cortical neurons transduced and processed as in (FIG. 8A) were directly harvested in SDS sample buffer at DIV 10 and subjected to immunoblotting with anti-Htt EM48 monoclonal antibody. Blot was reprobed with anti-β-actin antibody. Representative immunoblot from 3 independent experiments is shown. […]
RNAs were isolated from cultured neurons 5 days after infection of Htt lentiviruses and mouse brain using the RNeasy Plus Mini Kit (QIAGEN) and RNeasy Plus Universal Mini Kit (QIAGEN), respectively. […] Relative mRNA levels were calculated using the ΔΔCq method.

[2] = test system: mutant Htt aggregates in Htt-72Q-expressing primary cortical neurons; test: Mutant Htt aggregates, EM48 immunofluorescence and immunoblotting; format: cell-based, mouse
Procedure: (FIG. 8A) DIV 5 mouse primary cortical neurons were infected with Htt-72Q lentivirus and treated with decitabine or vehicle (DMSO). […] (FIG. 8B) DIV 5cortical neurons were infected with Htt lentivirus and treated with decitabine (0.2 μM) or DMSO. Neurons were fixed at DIV 11-12 and subjected to indirect immunofluorescence with a specific mouse monoclonal Htt antibody EM48, which preferentially detects aggregated mutant protein. Nuclei were labeled with Hoechst 33342. Images were captured using an Operetta high-content imaging system (PerkinElmer) with a 20× objective lens. Bar 100 μm. (FIG. 8C) EM48 immunofluorescence intensity in (FIG. 8B) was quantified using an ImageJ-based macro. […] (FIG. 8D) Cortical neurons transduced and processed as in (FIG. 8A) were directly harvested in SDS sample buffer at DIV 10 and subjected to immunoblotting with anti-Htt EM48 monoclonal antibody. Blot was reprobed with anti-β-actin antibody. Representative immunoblot from 3 independent experiments is shown. […] Data in (FIG. 8A) and (FIG. 8C) are presented as mean+SEM.
Image capture and quantification of Htt (EM48) immunofluorescence intensity were performed as described for those of NF.

[3] = test system: Bdnf exon IV, exon VI, and IX transcripts in primary cortical neurons from BACHD mice; test: qRT-PCR of Bdnf transcripts in BACHD primary cortical neurons; format: cell-based, mouse; conditions: 0.2 μM for 3.5 days, vs. vehicle
Procedure: RNA was harvested 5 days later and subjected to qRT-PCR for total Bdnf (coding exon IX) using β-actin and 18S rRNA as reference genes. […] FIG. 3C depicts the schematic of the mouse Bdnf locus and the relative RNA levels of the Bdnf exons. White boxes, non-coding exons; gray box, coding exon. qRT-PCR was performed as in using exon-specific Bdnf primers. […] (FIG. 3G, FIG. 3H) Cortical neurons were co-transduced with lenti viruses expressing Htt and indicated shRNA and processed as in (FIG. 3C). […] (FIG. 3I) Primary cortical neurons from BACHD mice were treated with decitabine (0.2 μM) or vehicle for 3.5 days. qRT-PCR was performed using β-actin as a reference gene. […] Data are presented as mean+SEM.
(§1) Mouse primary cortical and striatal neurons from embryonic day (E) 15.5 Swiss Webster mouse fetuses (Taconic) were first plated in the minimal essential medium (MEM) containing 10% FBS, 0.45% glucose, 1 mM sodium pyruvate, 2 mM glutamine, 20 U/ml penicillin and 20 μg/ml streptomycin, for 3 h and then maintained in serum-free Neurobasal medium (Life Technologies) containing NeuroCult™ SM1 neuronal supplement ([…] Technologies), 0.5 mM glutamine and 25 μM glutamate for the first 3 d in a humidified incubator (37° C. in 5% CO2). Half of the medium was replaced with Neurobasal medium with SM1 and 0.5 mM glutamine every 3 days.

[4] = test system: downregulated genes in mutant Htt-expressing striatal neurons; test: qRT-PCR of striatal genes in Htt-72Q primary striatal neurons; format: cell-based, mouse; conditions: Htt-72Q striatal neurons
Procedure: as §1

[5] = test system: Htt-72Q-expressing primary cortical neurons; test: Epigenetic drug library screen, resazurin (Alamar Blue) assay; format: cell-based, mouse; conditions: 0.02, 0.2, 2 μM added at DIV 6, resazurin at DIV 14; hits validated by MTS
Procedure: As epigenetic gene regulation is a cell-type specific mechanism, we used a physiologically relevant, post-mitotic cortical neuron culture system for this screen. In this system, lentivirus-mediated expression of the exon 1-encoded N-terminal fragment of mutant Htt (Htt-72Q with a 72 glutamine repeat), but not wild-type (WT) Htt (Htt-25Q), induces neurotoxicity^38. […] In the drug screen, the viability of Htt-expressing cortical neurons was determined by the resazurin (Alamar Blue) assay, a quantitative measurement of mitochondrial metabolic activity, which correlates with cell viability.
Epigenetic drug screen was performed using a primary cortical neuron model of HD with a drug library composed of 84 compounds (Table 1), among which 80 drugs are purchased from Cayman Chemical (Epigenetic Screening Library Item No 11076) and four drugs, SGC0946, EPZ5676, EPZ6438, and GSK126, were obtained from Xcessbio Biosciences Inc. Mouse primary cortical neurons were plated on 96-well flat clear bottom black plates (Corning #3904). WT or mutant Htt exon1 fragment (Htt-25Q or Htt-72Q)-expressing lentiviruses are infected at DIV 5 as described above. The 84 compounds were added to the media at DIV 6 one day after Htt lentiviral infection with three different doses (0.02, 0.2, 2 μM) for each compound at triplicates. DMSO was used as control. Media containing compounds or DMSO were changed every three days to maintain the compounds' activity. At DIV 14, the viability of neurons was determined by resazurin (Alamar blue) assay, a quantitative measurement of mitochondrial metabolic activity. The screen was fully automated and performed in the High-Throughput Screening Center in Washington University School of Medicine. Any possible plate effects were determined using control plates treated with DMSO and used for normalization. Screen hits were validated by MTS assay.

[6] = literature refs 64, 65; cited from earlier work
[7] = cited from earlier work
cytidine deaminase = target: T1, cytidine deaminase (Homo sapiens, UniProt P32320); conditions: literature refs 62, 64; cited from earlier work
T1 construct: host or cells: liver (in vivo)

[8] = In vitro stability: preincubation at 37° C. in saline, then MTS neuroprotection assay; conditions: 0.2 mM in saline preincubated at 37° C. for 11 days, then 0.2 μM on Htt-72Q cortical neurons, MTS at DIV 14
Description: Primary cortical neurons grown in a 96-well plate were transduced with Htt-expressing lentiviruses at DIV 5 and assessed for mitochondrial metabolic activity at 9 days post-infection (DIV 14) using 3-(4,5-dimethylthiazol-2-yl)-5-(3-carboxymethoxyphenyl)-2-(4-sulfophenyl)-2H-tetrazolium (MTS) (Promega) per manufacturer's instructions. MTS-reducing activity was normalized for each condition to Htt-25Q lentiviruses treated with vehicle or cotransduced with control RNAi lentivirus (=1). Experiments were performed in 3 or more wells per experiment in three to five independent experiments.

T1 sequence (P32320 whole entry, species assumed): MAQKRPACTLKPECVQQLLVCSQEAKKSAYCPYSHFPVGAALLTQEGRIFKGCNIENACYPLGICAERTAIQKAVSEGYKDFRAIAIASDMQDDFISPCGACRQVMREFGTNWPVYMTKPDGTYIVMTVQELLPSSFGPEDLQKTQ

| Structure (SMILES) | levels of 5-mC in Bdnf promoter IV region (MeDIP) [1] | striatal Penk RNA (R6/2 HD mouse brain) | striatal levels of Drd2, Ppp1r1b, Rasd2, and Adora2a mRNA (R6/2 HD mouse brain) | levels of Htt-72Q mRNA (Htt-72Q mRNA) | levels of mutant Htt aggregates (EM48 immunofluorescence intensity) ([2]; 0.2 μM, fixed at DIV 11-12, vs. Htt-72Q-DMSO) | aggregated high molecular weight mutant Htt in stacking gel (EM48 immunoblot) ([2]; harvested at DIV 10) | expression of Bdnf exon IV, exon VI, and IX transcripts [3] | mRNA levels of Kdm8 (specificity control) [4] | expression of downregulated genes (Drd2, Ppp1r1b, Penk, Pcp4, Rasd2) ([4]; RNA 5 days after infection, vs. Htt-72Q plus vehicle) | outcome in epigenetic drug screen (84 compounds) [5] | in vitro stability as reported previously [6] | blood-brain barrier crossing ([7]; literature refs 62, 63) | in vivo half-life ([7]; literature refs 62, 64) [min] | degradation by cytidine deaminase in the liver (cytidine deaminase) | neuroprotective activity after preincubation (in vitro stability) [8] |
| --- | --- | --- | --- | --- | --- | --- | --- | --- | --- | --- | --- | --- | --- | --- | --- |
| Nc1nc(=O)n([C@H]2C[C@H](O)[C@@H](CO)O2)cc1F [FdCyd, 5-fluoro-2′-deoxycytidine] | decreased levels of 5-mC in Bdnf promoter IV region | trend towards increasing | restored |  |  |  |  |  |  |  |  |  |  |  |  |
| Nc1ncn([C@H]2C[C@H](O)[C@@H](CO)O2)c(=O)n1 [decitabine, 5-aza-2′-deoxycytidine] | decreased levels of 5-mC in Bdnf promoter IV region |  |  | did not decrease the levels of Htt-72Q mRNA | significantly decreased the levels of mutant Htt aggregates | could decrease the levels of aggregated high molecular weight mutant Htt | increased expression of Bdnf exon IV, exon VI, and IX transcripts | unchanged | restored the expression of downregulated genes | the most effective drug | instability | reported to cross the blood-brain barrier | < 20 | degraded rapidly | lost its activity |
